Key:
Wistar rats = experiment: Evaluation of Wake Promoting Activity in Rats (EEG/EMG sleep/wake scoring); assay type: in vivo, rat; conditions: i.p. route, 100 mg/kg; for Mean AUC0–3h, test compound: first 3 hrs following dosing, n = 8 rats; for wakefulness compared to vehicle-treated animals: p<0.05 vs control groups
Procedure: The methodology utilized for evaluating wake promoting activity of test compounds is based on that described by Edgar and Seidel, Journal of Pharmacology and Experimental Therapeutics, 283:757-769, 1997, and incorporated herein in its entirety by reference.
Animal Surgery. Adult, male Wistar rats (275-320 g from Charles River Laboratories, Wilmington, Mass.) were anesthetized (Nembutal, 45 mg/kg, ip.) and surgically prepared with implants for recording of chronic EEG (encephalographic) and EMG (electromyographic) recording. The EEG implants were made from commercially available components (Plastics One, Roanoke, Va.). EEG signals were recorded from stainless steel screw electrodes: 2 frontal (+3.0 mm AP from bregma, ±2.0 mm ML), and 2 occipital (−4.0 mm AP from bregma, ±2.0 mm ML). Two Teflon-coated stainless steel wires were positioned under the nuchal trapezoid muscles for EMG recording. All electrode leads were inserted into a connector pedestal and the pedestal affixed to the skull by application dental acrylic. Antibiotic was administered post surgically and antibiotic cream was applied to the wound edges to prevent infection. At least one week elapsed between surgery and recording.
Recording environment. Postsurgically, rats were housed in pairs in an isolated room. Food and water were available ad libitum, ambient temperature was 21° C., and humidity was 55%. At least 24 hrs prior to recording, they were placed in Nalgene containers (31×31×31 cm) with a wire-grid top, and entry to the room was prohibited during the day of recording except for dosing. The containers were placed on a rack with two shelves, 4 containers per shelf. Fluorescent overhead room lights were set to a 24 hr. light/dark cycle (on at 7 AM, off at 7 PM). Light levels inside the containers were 38 and 25 lux for the top and bottom shelves respectively. Background white-noise (68 db inside the containers) was present in the room to mask ambient sounds.
Data acquisition. EEG and EMG signals were led via cables to a commutator (Plastics One) and then to pre-amplifiers (model 1700, A-M Systems, Carlsborg, Wash.). EEG and EMG signals were amplified (10K and 1K respectively) and bandpass filtered between 0.3 and 500 Hz for EEG and between 10 and 500 Hz for EMG. […] On the day of dosing, data was recorded for 6 to 10 hours beginning at 11 AM.
Drug administration and study design. Compounds were evaluated on groups of from 4 to 8 rats carried out over one or two separate test sessions. […]
Sleep/wake scoring. Sleep and wake activity were determined manually using ICELUS software. […]

| melting point [°C] | SMILES | Mean AUC0–3h, test compound (Wistar rats) | wakefulness compared to vehicle-treated animals (Wistar rats) |
| --- | --- | --- | --- |
| 153 to 154 | NC(=O)C[S+]([O-])Cc1ccccc1COc1ccccc1 (centres unmarked) | – | – |
| – | CC(=O)N1CCN(C(=O)C[S+]([O-])Cc2ccc(Oc3ccc(Cl)c(Cl)c3)cc2)CC1 (centres unmarked) [Example 22, 1-(4-Acetyl-piperazin-1-yl)-2-[4-(3,4-dichloro-phenoxy)-phenylmethanesulfinyl]-ethanone] | 162.7 % of waiking time × hr | significantly greated wakefulness |
| – | NC(=O)C[S+]([O-])Cc1ccccc1NC(=O)c1ccc(Cl)cc1 (centres unmarked) [Example 113, N-(2-carbamoylmethanesulfinylmethyl-phenyl)-4-chloro-benzamide] | 99.0 % of waiking time × hr | significantly greated wakefulness |
